Experimental data reported in patent US5223515A, “Injectable solution containing a pyridyl methylsulfinylbenzimidazole” (Takeda Chemical Industries, Ltd., priority 1988, dated 1993).
Values after ≈ are worked out from the molar mass of the structure shown.

Experiments:
[1] = Solubility of Compound (I-1) in water at different pH; format: physicochemical
[2] = Stability of Compound (I-1) in aqueous solution; format: physicochemical
[3] = Example 2 / Table 2: stability of Compound (I-1) in the solution state (2 mg/ml, mixed solvents); format: physicochemical
Protocol: Ethanol, polyethylene glycol 400, propylene glycol and water were mixed at the composition ratios as shown in Table 2 illustrated below, and 2 mg of Compound (I-1) was dissolved in 1 ml each of the resulting solvents, respectively, followed by adjustment to pH 9.0 with 5N-aqueous sodium hydroxide solution. As a control, there were prepared a suspension of 2 mg of Compound (I-1) in 1 ml of water being adjusted to pH 9.0 with 5N-aqueous sodium hydroxide solution and an aqueous solution of 2 mg of Compound (I-1) in 1 ml of 0.01N aqueous sodium hydroxide solution.

[4] = Example 3 / Table 3: stability of Compound (I-1) in the solution state (5 mg/ml, mixed solvents); format: physicochemical
Protocol: Ethanol, polyethylene glycol 400, propylene glycol and water were mixed at the composition ratios as shown in Table 3 illustrated below, and 5-mg of Compound (I-1) was dissolved in 1 ml each of the resulting solvents, respectively, followed by adjustment to pH 9.0 with 5N-aqueous sodium hydroxide solution. As a control, there were prepared a suspension of 5 mg of Compound (I-1) in 1 ml of water being adjusted to pH 9.0 with 5N-aqueous sodium hydroxide solution and an aqueous solution of 5 mg of Compound (I-1) in 1 ml of 0.02N aqueous sodium hydroxide solution. […] (A control of the suspension was not subjected to sterile-filtration).
These test specimens as filled into ampoules were investigated for each item of appearance, pH and clarity immediately after preparation and after storage at 25° C.

[5] = Example 4 / Table 4: stability of lyophilized Compound (I-1) after being dissolved in vials; format: physicochemical; conditions: for Solubility: lyophilized powder
Protocol: A 1000 mg quantity of Compound (I-1) was dispersed in distilled water for
injection, and 3 ml of 1N-aqueous sodium hydroxide solution was added to
dissolve the Compound (I-1), followed by addition of water to make up the
total of 50 ml and sterile filtration by the conventional method. The
resulting filtrate was filled in 1 ml portions into vials of a 12 cm^3
capacity, followed by lyophilization by means of the conventional
technique. The lyophilized powder as contained in vials was dissolved in
in Solvent A (which was composed of 50 mg of N-methylglucamine, 0.27 ml of
1N-hydrochloric acid and 2 ml of propylene glycol being admixed with
ethanol to make up the total of 4 ml), Solvent B (which was composed of 50
mg of N-methylglucamine, 0.27 ml of 1N-hydrochloric acid, 1.2 ml of
polyethylene glycol 400 and 1.2 ml of ethanol being admixed with distilled
water for injection to make up the total of 4 ml), Solvent C (which was
composed of 50 mg of N-methylglucamine, 0.27 ml of 1N-hydrochloric acid,
1.2 ml of ethanol and 1.2 ml of propylene glycol being admixed with
distilled water for injection to make up the total of 4 ml and Solvent D
(which was composed of 50 mg of N-methylglucamine, 0.27 ml of
1N-hydrochloric acid and 2.5 ml of polyethylene glycol 400 bing admixed
with distilled water for injection to make up the total of 4 ml),
respectively, to perform inspection for their solubilities as well as to
conduct investigation into appearance, clarity and contents immediately
after dissolution and after storage at 25° C. for 24 hours.

[6] = Example 1 / Table 1: stability of Compound (I-1) in the solution state (ethanol, propylene glycol); conditions: for Content: HPLC
Excerpt: Note, *As measured by use of highperformance liquid chromatography (HPLC)
chromatographic conditions of HPLC:
Carrier; Nucleosil 5 C18 (supplied by GasChro Kogyo K.K. of Japan)
Solvent; Methanol:water:triethylamine (60:40:1, pH 7)
Detection method; UV spectrophotometry at 285 nm

[7] = control: 2 mg in 0.01 N aq. sodium hydroxide 1 ml, after preparation
[8] = control: 2 mg in 0.01 N aq. sodium hydroxide 1 ml, after storage at 25° C./24 hrs.
[9] = 5 mg, PEG-400 0.3 ml, ethanol 0.3 ml, water 0.4 ml, after preparation
[10] = 5 mg, PEG-400 0.4 ml, water 0.6 ml, after preparation
[11] = 5 mg, ethanol 0.3 ml, propylene glycol 0.3 ml, water 0.4 ml, after preparation
[12] = 5 mg, ethanol 0.6 ml, water, after preparation
[13] = control: 5 mg in 0.02 N aq. sodium hydroxide 1 ml, after preparation
[14] = control: 5 mg in 0.02 N aq. sodium hydroxide 1 ml, after storage at 25° C./24 hrs.
[15] = Solvent A, after storage at 25° C. for 24 hrs.
[16] = Solvent B, after storage at 25° C. for 24 hrs.
[17] = Solvent C, after storage at 25° C. for 24 hrs.
[18] = Solvent D, after storage at 25° C. for 24 hrs.
[19] = Solvents A-D, after storage for 24 hours
[20] = 2 mg in ethanol 1 ml, after preparation
[21] = 2 mg in ethanol 1 ml, after storage at 25° C./24 hrs.
[22] = 2 mg in propylene glycol 1 ml, after preparation
[23] = 2 mg in propylene glycol 1 ml, after storage at 25° C./24 hrs.

Structure (SMILES): Cc1c(OCC(F)(F)F)ccnc1C[S+]([O-])c1nc2ccccc2[nH]1 (centres unmarked) [Compound (I-1), 2-(3-methyl-4-trifluoroethoxy-2-pyridyl)methylsulfinylbenzimidazole]
- Solubility ([1]; pH 11, water): 1 mg/mL (≈ 2.71 mM)
- Solubility ([1]; pH 13, water): 33 mg/mL (≈ 89.3 mM)
- stability in an aqueous solution ([2]; alkaline solution): satisfactorily stable
- appearance of aqueous solution ([2]; neutral to acidic range, short period of time): dark purple
- stability in an aqueous solution ([2]; pH decreased to the neutral to acidic range): less stable
- Appearance ([3]; 2 mg, PEG-400 0.05 ml, ethanol 0.35 ml, water 0.6 ml, after preparation): Colorless
- pH ([3]; 2 mg, PEG-400 0.05 ml, ethanol 0.35 ml, water 0.6 ml, after preparation (adjusted)): 9.0
- Content ([3]; 2 mg, PEG-400 0.05 ml, ethanol 0.35 ml, water 0.6 ml, after preparation (taken as 100.0%)): 100.0%
- Content ([3]; 2 mg, PEG-400 0.05 ml, ethanol 0.35 ml, water 0.6 ml, after storage at 25° C./24 hrs.): 98.0%
- Appearance ([3]; 2 mg, PEG-400 0.05 ml, propylene glycol 0.35 ml, water 0.6 ml, after preparation): Colorless
- pH ([3]; 2 mg, PEG-400 0.05 ml, propylene glycol 0.35 ml, water 0.6 ml, after preparation (adjusted)): 9.0
- Content ([3]; 2 mg, PEG-400 0.05 ml, propylene glycol 0.35 ml, water 0.6 ml, after preparation (taken as 100.0%)): 100.0%
- Content ([3]; 2 mg, PEG-400 0.05 ml, propylene glycol 0.35 ml, water 0.6 ml, after storage at 25° C./24 hrs.): 94.4%
- Appearance ([3]; 2 mg, PEG-400 0.4 ml, water 0.6 ml, after preparation): Colorless
- pH ([3]; 2 mg, PEG-400 0.4 ml, water 0.6 ml, after preparation (adjusted)): 9.0
- Content ([3]; 2 mg, PEG-400 0.4 ml, water 0.6 ml, after preparation (taken as 100.0%)): 100.0%
- Content ([3]; 2 mg, PEG-400 0.4 ml, water 0.6 ml, after storage at 25° C./24 hrs.): 91.8%
- Appearance ([3]; 2 mg, ethanol 0.5 ml, propylene glycol 0.5 ml, after preparation): Colorless
- pH ([3]; 2 mg, ethanol 0.5 ml, propylene glycol 0.5 ml, after preparation (adjusted)): 9.0
- Content ([3]; 2 mg, ethanol 0.5 ml, propylene glycol 0.5 ml, after preparation (taken as 100.0%)): 100.0%
- Content ([3]; 2 mg, ethanol 0.5 ml, propylene glycol 0.5 ml, after storage at 25° C./24 hrs.): 98.0%
- dissolution of control specimens ([3]; control in water adjusted to same pH as other test specimens, 2 mg/ml): failed to allow adequate dissolution
- pH needed to secure dissolution of control specimens ([3]; control, 2 mg/ml): not less than 11
- Appearance [3, 7]: Colorless
- pH [3, 7]: 11.4
- Content ([3]; control: 2 mg in 0.01 N aq. sodium hydroxide 1 ml, after preparation (taken as 100.0%)): 100.0%
- Appearance [3, 8]: Colorless
- Content [3, 8]: 92.5%
- pH ([3]; control: 2 mg in water 1 ml, after preparation (adjusted)): 9.1
- Appearance [4, 9]: Colorless
- Clarity [4, 9]: Clear
- pH ([4]; 5 mg, PEG-400 0.3 ml, ethanol 0.3 ml, water 0.4 ml, after preparation (adjusted)): 9.0
- Clarity ([4]; 5 mg, PEG-400 0.3 ml, ethanol 0.3 ml, water 0.4 ml, after storage at 25° C./24 hrs.): Clear
- Appearance [4, 10]: Colorless
- Clarity [4, 10]: Clear
- pH ([4]; 5 mg, PEG-400 0.4 ml, water 0.6 ml, after preparation (adjusted)): 9.0
- Clarity ([4]; 5 mg, PEG-400 0.4 ml, water 0.6 ml, after storage at 25° C./24 hrs.): Clear
- Appearance [4, 11]: Colorless
- Clarity [4, 11]: Clear
- pH ([4]; 5 mg, ethanol 0.3 ml, propylene glycol 0.3 ml, water 0.4 ml, after preparation (adjusted)): 9.0
- Clarity ([4]; 5 mg, ethanol 0.3 ml, propylene glycol 0.3 ml, water 0.4 ml, after storage at 25° C./24 hrs.): Clear
- Appearance [4, 12]: Colorless
- Clarity [4, 12]: Clear
- pH ([4]; 5 mg, ethanol 0.6 ml, water, after preparation (adjusted)): 9.0
- Clarity ([4]; 5 mg, ethanol 0.6 ml, water, after storage at 25° C./24 hrs.): Clear
- dissolution of control specimens ([4]; control in water adjusted to same pH as other test specimens, 5 mg/ml): failed to allow adequate dissolution
- pH needed to secure dissolution of control specimens ([4]; control, 5 mg/ml): not less than 11
- Appearance [4, 13]: Colorless
- Clarity [4, 13]: Clear
- pH [4, 13]: 11.6
- Appearance [4, 14]: Colorless
- Clarity [4, 14]: Clear
- pH ([4]; control: 5 mg in water 1 ml, after preparation (adjusted)): 8.9
- pH after dissolution ([5]; Solvent A): 8.7
- Appearance ([5]; Solvent A, after dissolution): Colorless
- Clarity ([5]; Solvent A, after dissolution): Clear
- Content ([5]; Solvent A, after dissolution (taken as 100%)): 100%
- Clarity [5, 15]: Clear
- Content [5, 15]: 97.0%
- pH after dissolution ([5]; Solvent B): 9.0
- Appearance ([5]; Solvent B, after dissolution): Colorless
- Clarity ([5]; Solvent B, after dissolution): Clear
- Content ([5]; Solvent B, after dissolution (taken as 100%)): 100%
- Clarity [5, 16]: Clear
- Content [5, 16]: 96.5%
- pH after dissolution ([5]; Solvent C): 9.0
- Appearance ([5]; Solvent C, after dissolution): Colorless
- Clarity ([5]; Solvent C, after dissolution): Clear
- Content ([5]; Solvent C, after dissolution (taken as 100%)): 100%
- Clarity [5, 17]: Clear
- Content [5, 17]: 96.7%
- pH after dissolution ([5]; Solvent D): 9.0
- Appearance ([5]; Solvent D, after dissolution): Colorless
- Clarity ([5]; Solvent D, after dissolution): Clear
- Content ([5]; Solvent D, after dissolution (taken as 100%)): 100%
- Clarity [5, 18]: Clear
- Content [5, 18]: 96.1%
- Appearance ([5]; Solvents A, B, C, D (one spanning entry), after storage at 25° C. for 24 hrs.): Slightly to lightly green-yellow
- change in content [5, 19]: decrease slightly
- change in the clarity [5, 19]: no change
- changes in appearance ([5]; Solvents A-D, immediately after dissolution and after storage for 24 hours): slight changes
- dissolution of lyophilized powder ([5]; all of these solvents (A-D)): dissolved quickly
- solubilities of lyophilized powder ([5]; all of these solvents (A-D)): excellent solubilities
- Solubility ([5]; Solvent A (propylene glycol/ethanol)): Good
- Solubility ([5]; Solvent B (PEG 400/ethanol/water)): Good
- Solubility ([5]; Solvent C (ethanol/propylene glycol/water)): Good
- Solubility ([5]; Solvent D (PEG 400/water)): Good
- Appearance [6, 20]: Colorless
- Clarity [6, 20]: Clear
- Content ([6]; 2 mg in ethanol 1 ml, after preparation (taken as 100.0%)): 100.0%
- Appearance [6, 21]: Yellowish
- Clarity [6, 21]: Clear
- Content [6, 21]: 99.2%
- Appearance [6, 22]: Colorless
- Clarity [6, 22]: Clear
- Appearance [6, 23]: Light red-purple
- Clarity [6, 23]: Clear
- change in appearance ([6]; ethanol and propylene glycol, after storage at 25° C. for 24 hours): slight change
